These results are taken from patent US6921531B2, “Administering bifunctional molecules containing a drug moiety and presenter protein ligand for therapy” (The Board of Trustees of the Leland Stanford Junior …, priority 1998, dated 2005).

Each structure is given as a SMILES string. Where two headings read alike, the source gives them in different places.

One experiment addresses albumin (Homo sapiens, UniProt P02768). To be noted: known ligand; read-out: IC50 as ligand for albumin; cited from earlier work.
The next experiment addresses alkaline phosphatase. The settings on record: known inhibitor; cited from earlier work.
The next experiment concerns the target T1, Fyn SH2 domain (Homo sapiens, UniProt P06241).
T1 construct: The Fyn, Lck and PLC SH2 domains were expressed in bacteria as GST fusion proteins; GST (cleaved yes); made in house; host or cells: bacteria
Kind of experiment: Competition binding assay of radioactive Fyn SH2 domain to pYEEI beads. The source says:
(§1) The pYEEI peptide was coupled to Affi-Gel 10 beads (Biorad) via its amino-group. The Fyn, Lck and PLC SH2 domains were expressed in bacteria as GST fusion proteins. The linker between the GST protein and the SH2 domain contained a thrombin cleavage site and a protein kinase A (PKA) phosphorylation site. The fusion protein on glutathione beads was radioactively labeled at the PKA phosphorylation site using PKA (Sigma). After extensive washing of the beads, the radioactive SH2 domain was released by cleavage with thrombin (Sigma). In a typical binding assay, 7.5 L of a 1:1 peptide bead slurry were incubated with the radioactive SH2 domain (200 nM) for 2 hours in 100 L of binding buffer (20 mM Tris pH7.2; 150 mM NaCl). In order to separate the radioactive protein bound to the beads, the binding reaction was transfered into a PCR tube (USA Scientific Plastic), whose bottom had been punctured with a 26gauge needle. The PCR tube was placed in a 0.5 mL Eppendorf tube which in turn was placed in a regular 1.5 mL Eppendorf tube. The tubes were spun for 1 second at maximal speed in an Eppendorf centrifuge resulting in the separation of the beads remaining in the PCR tube and the supernatant, which was collected in the 0.5 ml Eppendorf tube. The beads were resuspended in […] PBS and the radioactivity was counted in a liquid scintillation counter after addition of 3 ml scintillation fluid. The radioactivity remaining in the 100 L supernatant was counted in the same way. It was determined that under the conditions described 65% Fyn, 25% PLC and 15%Lck SH2 domain were bound to the beads. By increasing the amount of beads, up to 80% Fyn, 40% PLC and 25% Lck could be bound. These amounts reflect the active fraction of SH2 domains in the different protein preparations.
In order to determine the relative affinity of the SH2 domains for FKpYEEI or SLFpYEEI alone and FKpYEEI or SLFpYEEI bound to FKBP12 and FKBP52, the following competition assay was used. Radioactive SH2 domains were incubated with pYEEI peptide beads and FKpYEEI or SLFpYEEI in the presence or absence of the respective FKBP proteins. FKpYEEI and FKpYEEI/FKBP as well as SLFpYEEI and SLFpYEEI/FKBP compete for binding of the SH2 domains with the peptide beads. The higher the affinity of the FKpYEEI or SLFpYEEI ligand in the supernatant, the less SH2 domain is bound to the peptide beads (FIG. 3).
Using the competition binding assay described above, FKpYEEI was added to peptide beads and the Fyn SH2 domain in the presence of increasing concentrations of FKBP52 (FIG. 4). In this assay, in 100 L binding reactions, radioactively labeled Fyn SH2 domain (200 nM) was incubated with 7.5 L of a 1:1 pYEEI bead slurry. No FKpYEEI, 1.0 M FKpYEEI or 1.0 M FKpYEEI plus increasing concentrations of FKBP52 (0.25-4.0 M) were added. The binding reactions were rotated at room temperature for 2 hours. The supernatant was separated from the beads by spinning the binding reactions in punctured PCR tubes for 1 sec in an Eppendorf centrifuge at maximal speed. The beads were resuspended in 100 1 PBS and the radioactivity bound to the beads was counted in a liquid scintillation vial for 30 sec. The radioactivity bound to the beads in the presence of only the Fyn SH2 domain was plotted as 100% of maximal Fyn SH2 domain binding to pYEEI beads. The radioactivity bound in the presence of FKpYEEI and FKBP52 was calculated as the percentage of maximal Fyn SH2 domain binding. Every binding reaction was done in triplicate. The data points reflect the average of the three binding reactions. The error bars indicate the standard error.
In this assay, in 100 L binding reactions, radioactively labeled Fyn SH2 domain (200 nM) was incubated with 7.5 L of a 1:1 pYEEI bead slurry. […] The binding reactions were rotated at room temperature for 2 hours, centrifuged and analysed as described above. […]

A further experiment concerns PLC SH2 domain. Description: Competition binding assay of radioactive PLC SH2 domain to pYEEI beads. The settings on record: FKpYEEI 1.5 M plus FKBP12 2.0 M plus FK506 1.0-5.0 M.
Excerpt: as §1, with “By increasing the amount of beads, up to 80% Fyn, 40% PLC and 25% Lck could be bound. These amounts reflect the active fraction of SH2 domains in the different protein preparations.” left out
The binary complex of FKpYEEI and FKBP 12 has the same affinity for the Fyn SH2 domain as free FKpYEEI (see FIG. 7). […] The binding reactions were rotated at room temperature for 2 hours, centrifuged and analysed as described above.
In this assay, in 100 L binding reactions, radioactively labeled PLC SH2 domain (400 nM) was incubated with 7.5 L of a 1:1 pYEEI bead slurry. […] The binding reactions were rotated at room temperature for 2 hours, centrifuged and analysed as described above. […]

Experiment [1] deals with alkaline phosphatase (Eel Intestine) (Anguilla anguilla, UniProt A0A9D3RXU0). Description: Alkaline phosphatase inhibition, Eel Intestine isoform. Format: biochemical. The settings on record: 100 μM human serum albumin vs none. As for the experimental part:
(§2) Reactions were conducted in 200 mM diethanolamine buffer, pH 10, with methylumbeliferal phosphate as the substrate. The reaction was monitored by recording fluorescence of the hydrolysis product (excitation at 355 nm, fluorescence at […]), and the first 10% of the reaction was used to determine the rate of the reaction.
(§3) In the presence of 100 μM human serum albumin, compound 1 was seen to be a better inhibitor for four of the enzymes tested relative to the inhibition seen in the absence of albumin.

The target of experiment [2] is T2, alkaline phosphatase (Porcine Kidney) (Sus scrofa, UniProt A0A4X1W3F8).
T2 sequence (A0A4X1W3F8 1-524): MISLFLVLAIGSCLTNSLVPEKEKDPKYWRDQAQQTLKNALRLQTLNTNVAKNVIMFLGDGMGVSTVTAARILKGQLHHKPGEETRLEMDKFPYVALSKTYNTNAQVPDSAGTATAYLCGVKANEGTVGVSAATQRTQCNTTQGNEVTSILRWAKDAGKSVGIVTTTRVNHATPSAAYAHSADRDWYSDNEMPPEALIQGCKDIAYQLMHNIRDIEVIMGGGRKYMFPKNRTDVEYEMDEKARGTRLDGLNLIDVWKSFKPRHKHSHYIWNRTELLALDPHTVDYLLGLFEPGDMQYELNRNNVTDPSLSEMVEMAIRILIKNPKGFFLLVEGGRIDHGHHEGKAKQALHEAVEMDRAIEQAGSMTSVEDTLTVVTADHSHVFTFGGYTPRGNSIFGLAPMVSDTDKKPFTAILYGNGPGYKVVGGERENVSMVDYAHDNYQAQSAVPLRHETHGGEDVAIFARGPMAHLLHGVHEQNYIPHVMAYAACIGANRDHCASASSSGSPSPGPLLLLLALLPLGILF
Kind of experiment: Alkaline phosphatase inhibition, Porcine Kidney isoform. Format: biochemical. As for the experimental part:
as §2, §3

Experiment [3] addresses alkaline phosphatase (Bacteria) (Escherichia coli, UniProt P00634). Kind of experiment: Alkaline phosphatase inhibition, Bacteria isoform. Format: biochemical. On the procedure: as §2, §3
Experiment [4] addresses T3, alkaline phosphatase (Bovine Milk) (Bos taurus, UniProt P09487).
T3 construct: Bovine Milk; from tissue; host or cells: bovine milk
T3 sequence (P09487 18-499): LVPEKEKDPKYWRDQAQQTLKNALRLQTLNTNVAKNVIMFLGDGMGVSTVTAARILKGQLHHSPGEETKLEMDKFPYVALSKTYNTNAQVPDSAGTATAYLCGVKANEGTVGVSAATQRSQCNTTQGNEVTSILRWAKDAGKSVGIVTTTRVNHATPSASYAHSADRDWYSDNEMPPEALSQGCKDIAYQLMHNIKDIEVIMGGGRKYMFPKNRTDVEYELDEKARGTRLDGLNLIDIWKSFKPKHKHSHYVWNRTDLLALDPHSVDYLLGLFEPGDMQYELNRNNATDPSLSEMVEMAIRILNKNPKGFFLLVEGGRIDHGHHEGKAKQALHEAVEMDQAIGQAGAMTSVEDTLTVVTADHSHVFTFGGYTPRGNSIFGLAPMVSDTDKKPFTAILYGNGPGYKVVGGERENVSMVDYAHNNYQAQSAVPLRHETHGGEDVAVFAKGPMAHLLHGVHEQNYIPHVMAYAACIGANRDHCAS
Description: Alkaline phosphatase inhibition, Bovine Milk isoform. In kind it is biochemical. On the procedure: as §2, §3

Experiment [5] has as its target alkaline phosphatase (Dog Intestine) (Canis lupus familiaris, UniProt A0A8C0LCK3). Kind of experiment: Alkaline phosphatase inhibition, Dog Intestine isoform. In kind it is biochemical. As for the experimental part: as §2, §3
The target in experiment [6] is alkaline phosphatase (Rabbit Intestine) (Oryctolagus cuniculus, UniProt G1SXE4). Kind of experiment: Alkaline phosphatase inhibition, Rabbit Intestine isoform. The settings on record: 100 μM human serum albumin vs none. In kind it is biochemical. As for the experimental part:
as §2, §3

Experiment [7] addresses alkaline phosphatase (Shrimp) (Pandalus borealis, UniProt Q9BHT8). Description: Alkaline phosphatase inhibition, Shrimp isoform. In kind it is biochemical. To be noted: Shrimp, pH 10. On the procedure: as §2, §3
In experiment [8] the test system is alkaline phosphatase (Shrimp). Kind of experiment: Alkaline phosphatase inhibition, Shrimp isoform. Format: biochemical. To be noted: shrimp isoform; 100 μM human serum albumin vs none. On the procedure:
as §2, §3

For experiment [9], the target named is T4, alkaline phosphatase (Human Placenta) (Homo sapiens, UniProt P05187).
T4 construct: roughly 2-fold for the eel intestine and human placenta isoforms of the enzyme; from tissue; host or cells: human placenta
Description: Alkaline phosphatase inhibition, Human Placenta isoform. Format: biochemical. To be noted: for IC50: Human Placenta, pH 10. As for the experimental part:
as §2, §3

Setting [10] is: 100 μM human serum albumin, pH 10, read-out: IC50 (100 μM albumin).
Setting [11] is: no albumin, pH 10, read-out: IC50 (no albumin).

T4 sequence (P05187 23-506): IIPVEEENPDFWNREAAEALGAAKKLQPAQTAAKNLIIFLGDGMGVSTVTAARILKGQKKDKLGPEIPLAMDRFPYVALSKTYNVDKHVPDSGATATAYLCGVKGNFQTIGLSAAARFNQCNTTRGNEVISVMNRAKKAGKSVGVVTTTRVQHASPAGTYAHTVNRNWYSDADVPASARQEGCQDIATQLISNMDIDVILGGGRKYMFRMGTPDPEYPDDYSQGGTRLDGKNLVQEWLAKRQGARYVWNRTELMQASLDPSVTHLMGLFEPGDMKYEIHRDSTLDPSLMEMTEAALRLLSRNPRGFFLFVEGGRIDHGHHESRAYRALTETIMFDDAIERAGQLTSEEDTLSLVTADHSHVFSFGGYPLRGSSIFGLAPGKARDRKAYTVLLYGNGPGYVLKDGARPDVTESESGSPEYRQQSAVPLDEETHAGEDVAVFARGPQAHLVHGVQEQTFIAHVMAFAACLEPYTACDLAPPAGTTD
alkaline phosphatase (Dog Intestine), sequence (A0A8C0LCK3 23-522): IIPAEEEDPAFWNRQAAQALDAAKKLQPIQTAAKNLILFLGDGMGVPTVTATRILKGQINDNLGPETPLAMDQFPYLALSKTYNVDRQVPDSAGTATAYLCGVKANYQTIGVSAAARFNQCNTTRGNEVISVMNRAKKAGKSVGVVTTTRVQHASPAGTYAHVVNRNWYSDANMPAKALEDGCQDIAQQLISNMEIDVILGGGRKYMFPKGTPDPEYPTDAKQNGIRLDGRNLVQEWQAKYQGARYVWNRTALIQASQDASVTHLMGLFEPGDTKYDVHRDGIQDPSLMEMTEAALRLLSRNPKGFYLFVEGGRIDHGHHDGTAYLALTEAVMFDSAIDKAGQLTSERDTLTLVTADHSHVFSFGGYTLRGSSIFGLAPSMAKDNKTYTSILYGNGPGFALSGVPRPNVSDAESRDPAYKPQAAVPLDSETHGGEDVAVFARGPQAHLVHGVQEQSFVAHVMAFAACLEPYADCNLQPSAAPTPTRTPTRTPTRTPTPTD
T1 sequence (P06241 149-246 limits assumed): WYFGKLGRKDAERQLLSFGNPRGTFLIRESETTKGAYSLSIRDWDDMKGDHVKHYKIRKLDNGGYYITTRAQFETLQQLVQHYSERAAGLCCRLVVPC
alkaline phosphatase (Bacteria), sequence (P00634 22-471): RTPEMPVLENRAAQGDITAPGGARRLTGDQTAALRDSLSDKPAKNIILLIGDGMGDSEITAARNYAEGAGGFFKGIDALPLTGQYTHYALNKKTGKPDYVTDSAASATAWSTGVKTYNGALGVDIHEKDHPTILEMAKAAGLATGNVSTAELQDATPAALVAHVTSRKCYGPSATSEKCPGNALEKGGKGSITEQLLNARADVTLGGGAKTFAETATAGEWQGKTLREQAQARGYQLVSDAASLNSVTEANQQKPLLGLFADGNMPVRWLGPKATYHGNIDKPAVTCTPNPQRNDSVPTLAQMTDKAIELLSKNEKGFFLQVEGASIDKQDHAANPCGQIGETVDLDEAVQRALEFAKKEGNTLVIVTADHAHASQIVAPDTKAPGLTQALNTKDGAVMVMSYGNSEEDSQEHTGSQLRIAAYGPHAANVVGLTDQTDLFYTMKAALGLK
alkaline phosphatase (Shrimp) (Pandalus borealis, UniProt Q9BHT8), sequence (Q9BHT8 entry or part of it): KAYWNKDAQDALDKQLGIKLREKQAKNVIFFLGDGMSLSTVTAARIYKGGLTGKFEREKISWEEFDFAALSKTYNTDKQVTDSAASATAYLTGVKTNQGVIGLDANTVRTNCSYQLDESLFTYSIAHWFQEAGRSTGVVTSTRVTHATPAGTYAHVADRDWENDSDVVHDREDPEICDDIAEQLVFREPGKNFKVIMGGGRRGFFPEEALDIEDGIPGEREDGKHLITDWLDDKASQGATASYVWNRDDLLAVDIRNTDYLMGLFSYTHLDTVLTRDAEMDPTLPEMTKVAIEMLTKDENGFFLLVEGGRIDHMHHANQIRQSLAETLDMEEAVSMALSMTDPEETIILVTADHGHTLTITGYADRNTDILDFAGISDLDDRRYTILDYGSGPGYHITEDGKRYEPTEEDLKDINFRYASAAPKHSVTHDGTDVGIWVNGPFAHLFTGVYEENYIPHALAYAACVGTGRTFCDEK
alkaline phosphatase (Eel Intestine), sequence (A0A9D3RXU0 entry or part of it): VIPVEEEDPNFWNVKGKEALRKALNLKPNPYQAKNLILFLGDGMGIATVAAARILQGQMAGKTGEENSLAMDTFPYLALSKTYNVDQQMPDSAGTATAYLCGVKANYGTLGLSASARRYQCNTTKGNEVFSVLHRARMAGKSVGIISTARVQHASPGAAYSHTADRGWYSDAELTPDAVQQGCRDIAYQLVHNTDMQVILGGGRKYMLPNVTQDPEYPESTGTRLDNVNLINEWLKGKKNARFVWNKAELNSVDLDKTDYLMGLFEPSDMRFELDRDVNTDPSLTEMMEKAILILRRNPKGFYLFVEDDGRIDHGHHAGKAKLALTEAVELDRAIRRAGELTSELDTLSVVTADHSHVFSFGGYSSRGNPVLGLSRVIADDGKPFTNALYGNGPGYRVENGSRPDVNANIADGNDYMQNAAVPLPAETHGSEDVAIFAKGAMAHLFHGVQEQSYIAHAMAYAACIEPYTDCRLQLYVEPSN
albumin, sequence (P02768 25-609): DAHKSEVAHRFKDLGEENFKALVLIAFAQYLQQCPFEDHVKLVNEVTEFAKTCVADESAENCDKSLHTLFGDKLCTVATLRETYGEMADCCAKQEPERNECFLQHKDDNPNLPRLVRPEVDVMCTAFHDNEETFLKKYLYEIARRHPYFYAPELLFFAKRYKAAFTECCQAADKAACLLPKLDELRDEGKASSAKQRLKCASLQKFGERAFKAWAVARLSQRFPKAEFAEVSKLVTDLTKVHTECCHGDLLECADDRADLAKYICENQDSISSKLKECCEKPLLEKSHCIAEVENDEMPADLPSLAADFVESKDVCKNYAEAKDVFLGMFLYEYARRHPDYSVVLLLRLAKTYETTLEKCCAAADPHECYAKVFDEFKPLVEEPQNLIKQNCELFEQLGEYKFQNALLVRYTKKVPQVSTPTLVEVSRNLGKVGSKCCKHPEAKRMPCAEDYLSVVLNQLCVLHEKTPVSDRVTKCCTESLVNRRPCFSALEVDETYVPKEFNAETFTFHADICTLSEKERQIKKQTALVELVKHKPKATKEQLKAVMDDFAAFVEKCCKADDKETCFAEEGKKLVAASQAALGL
alkaline phosphatase (Rabbit Intestine), sequence (G1SXE4 25-504): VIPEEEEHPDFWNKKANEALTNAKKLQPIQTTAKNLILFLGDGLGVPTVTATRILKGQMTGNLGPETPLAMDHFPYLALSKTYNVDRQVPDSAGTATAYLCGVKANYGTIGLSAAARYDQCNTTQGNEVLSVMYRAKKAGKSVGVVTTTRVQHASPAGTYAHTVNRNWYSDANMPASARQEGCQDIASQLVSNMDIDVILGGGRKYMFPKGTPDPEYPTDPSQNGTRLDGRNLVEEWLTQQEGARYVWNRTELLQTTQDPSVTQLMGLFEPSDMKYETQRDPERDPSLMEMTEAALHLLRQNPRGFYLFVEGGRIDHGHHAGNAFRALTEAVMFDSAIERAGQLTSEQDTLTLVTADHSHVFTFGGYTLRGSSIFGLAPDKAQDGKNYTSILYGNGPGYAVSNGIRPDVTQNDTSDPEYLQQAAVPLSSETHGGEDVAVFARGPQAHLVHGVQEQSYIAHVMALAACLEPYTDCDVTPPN

As usually defined, the IC50 is the point on the concentration scale where inhibition reaches its midpoint. As for `Nc1ccc(C(=O)O)c(O)c1` [para-amino salicylic acid], the IC50 on albumin is 5 µM.
For `CC(C)(S)[C@@H](N)C(=O)O` [Penicillamine], the “IC 50 values for a wide variety of alkaline phosphatase isoforms” value at alkaline phosphatase is on record as “in the μM range”.
Regarding `C=CC[C@@H]1/C=C(\C)C[C@H](C)C[C@H](OC)[C@H]2O[C@@](O)(C(=O)C(=O)N3CCCC[C@H]3C(=O)O[C@H](/C(C)=C/[C@@H]3CC[C@@H](O)[C@H](OC)C3)[C@H](C)[C@@H](O)CC1=O)[C@H](C)C[C@@H]2OC` [FK506, reference compound], on Fyn SH2 domain (FKpYEEI 1.0 M plus FKBP52 2.0 M plus FK506 0.25-15.0 M), the “Effect of added FK506 on the FKBP52 effect” value is recorded as “the affinity enhancing effect of FKBP52 is reversed”. Further, the “Effect of added FK506 on the FKBP12 effect” value on Fyn SH2 domain (SLFpYEEI 1.0 M plus FKBP12 2.0 M plus FK506 1.0-3.0 M) is reported as “reverses the effect of reduced affinity”; in the experiment with PLC SH2 domain, “the affinity reduction is reversed”.
For the compound `CC(C)(S)C(N)C(=O)NCC(=O)Nc1ccc(C(=O)O)c(O)c1` (stereo not drawn) [Compound 1], the “Decrease of IC50 in the presence of albumin” value in experiment [1] is reported as “roughly 2 fold”; in experiment [6], “roughly 12 fold”; in [8] it was “roughly 12 fold”; in experiment [9] (human placenta isoform, 100 μM human serum albumin vs none), “roughly 2 fold”. Further, the IC50 in experiment [2] (setting [10]) is 50 µM; in [2] (setting [11]), 50 µM; in experiment [3], 50 µM; in experiment [3] (read-out: IC50 (100 μM albumin), Bacteria, 100 μM human serum albumin, pH 10) it was 50 µM; in experiment [4] (setting [10]) it was 50 µM; in experiment [4] (setting [11]), 50 µM. Besides, the IC50 in [5] (read-out: IC50 (100 μM albumin), 100 μM human serum albumin, pH 10) turned out to be 20 µM; in experiment [5] (read-out: IC50 (no albumin), no albumin, pH 10), 20 µM; in [7] (IC50 (100 μM albumin), 100 μM human serum albumin) it was 80 µM; in experiment [7] (IC50 (no albumin), no albumin) it was 3000 µM; in [9] (100 μM human serum albumin, read-out: IC50 (100 μM albumin)) it was 45 µM; in [9] (no albumin, read-out: IC50 (no albumin)) it was 300 µM.
